In PMC5910394, “Mechanically interlocked functionalization of monoclonal antibodies” (Nature Communications, 2018):
Starred links: 1 amine or outer side, 2 acyl side, 3 side chain; linkers in the order of their positions; H or OH if unused. Positions of bridges follow the written chain, without caps; N, C: chain ends. Non-standard residues stand in square brackets, D forms with d. Residues, ends and D or L forms follow the SMILES beside them. X1 = [N-]=[N+]=NCCOCCOCCNC(=N)NCCC[C@H](N[*:1])C(=O)[*:2]; Dip = N[C@H](C(=O)O)C(c1ccccc1)c1ccccc1

Key:
memAb anti-HER2 = assay: SPR binding kinetics of meditope variants to immobilized memAb anti-HER2; details: n=1
Ile83Glu memAb anti-HER2 = assay: SPR binding kinetics of meditope variants to immobilized Ile83Glu memAb anti-HER2
[1] = SPR Biacore T100, memAb on CM5 chip, HBS-EP+, 1:1 model, 25°C

| ka (memAb anti-HER2; [1]) | Kd (memAb anti-HER2; SPR, 25°C) [nM] | kd (memAb anti-HER2; SPR, 25°C) [s⁻¹] | SMILES | other results |
| --- | --- | --- | --- | --- |
| 0.92 M-1s-1 x 104 | 2600 | 0.024 | CC(C)C[C@@H]1NC(=O)[C@H](CCCNC(=N)N)NC(=O)[C@H](CCCNC(=N)N)NC(=O)[C@H]([C@@H](C)O)NC(=O)[C@H](CO)NC(=O)[C@H](CC(C)C)NC(=O)[C@H](CC(=O)O)NC(=O)[C@H](C(c2ccccc2)c2ccccc2)NC(=O)[C@H](CCC(N)=O)NC(=O)[C@@H](N)CSSC[C@@H](C(=O)O)NC(=O)[C@H](CCCCN)NC1=O |  |
| 2.1 M-1s-1 x 104 | 5700 | 0.12 | CC(C)C[C@@H]1NC(=O)[C@H](CCCNC(=N)N)NC(=O)[C@H](CCCNC(=N)N)NC(=O)[C@H]([C@@H](C)O)NC(=O)[C@H](CO)NC(=O)[C@H](CC(C)C)NC(=O)[C@H](CC(=O)O)NC(=O)[C@H](Cc2ccccc2)NC(=O)[C@H](CCC(N)=O)NC(=O)CCCCCCNC(=O)[C@H](CCCCN)NC1=O |  |
| 2.8 M-1s-1 x 104 | 210 | 0.006 | CC(=O)N[C@H]1CSSC[C@@H](C(=O)NCC(=O)NCC(=O)N[C@@H](CO)C(=O)N[C@@H](CCCCN)C(=O)O)NC(=O)[C@H](CCCNC(=N)N)NC(=O)[C@H](CC(C)C)NC(=O)[C@H](CCCNC(=N)N)NC(=O)[C@H](CCCNC(=N)N)NC(=O)[C@H]([C@@H](C)O)NC(=O)[C@H](CO)NC(=O)[C@H](CC(C)C)NC(=O)[C@H](CC(=O)O)NC(=O)[C@H](Cc2ccccc2)NC(=O)[C@H](CCC(N)=O)NC1=O | Kd (memAb anti-HER2; SPR, 37 °C): 350 nM; ka (memAb anti-HER2; SPR, 37 °C): 7.5 M-1s-1 x 104; kd (memAb anti-HER2; SPR, 37 °C): 0.026 s⁻¹; Kd (Ile83Glu memAb anti-HER2; SPR, 25°C, n=1): 0.44 nM; ka (Ile83Glu memAb anti-HER2; SPR, 25°C, n=1): 71 M-1s-1 x 104; Kd (Ile83Glu memAb anti-HER2; SPR, 37°C, n=4, mean (±SD)): 4 nM; ka (Ile83Glu memAb anti-HER2; SPR, 37°C, n=4, mean (±SD)): 16 (±6) M-1s-1 x 104 |
|  |  |  | CC(=O)N[C@H]1CSSC[C@@H](C(=O)NCC(=O)NCC(=O)N[C@@H](CO)C(=O)N[C@@H](CCCCN)C(=O)O)NC(=O)[C@H](CCCNC(=N)N)NC(=O)[C@H](CC(C)C)NC(=O)[C@H](CCCNC(=N)N)NC(=O)[C@H](CCCNC(=N)NCCOCCOCCN=[N+]=[N-])NC(=O)[C@H]([C@@H](C)O)NC(=O)[C@H](CO)NC(=O)[C@H](C(c2ccccc2)c2ccccc2)NC(=O)[C@H](CC(=O)O)NC(=O)[C@H](Cc2ccccc2)NC(=O)[C@H](CCC(N)=O)NC1=O (Ac-CQFD[Dip]ST[X1]RLRCGGSK-OH; disulfide 1-12) | Kd (Ile83Glu memAb anti-HER2; SPR sensogram (Fig. 1c E83 / Supplementary Fig. 1a), 37 °C, n = 1): 2.1 nM; half-life of the interaction (τ) (Ile83Glu memAb anti-HER2; SPR, 37 °C): 1.38 h |
| 1.8 M-1s-1 x 104 | 1000 | 0.018 | CC(C)C[C@@H]1NC(=O)[C@H](CCCNC(=N)N)NC(=O)[C@H](CCCNC(=N)N)NC(=O)[C@H]([C@@H](C)O)NC(=O)[C@H](CO)NC(=O)[C@H](CC(C)C)NC(=O)[C@H](CC(=O)O)NC(=O)[C@H](Cc2ccccc2)NC(=O)[C@H](CCC(N)=O)NC(=O)CCSSC[C@@H](C(=O)O)NC(=O)[C@H](CCCCN)NC1=O [(MPT) QFDLSTRRLKC] |  |
| 20 M-1s-1 x 104 | 40 | 0.008 | CC(C)C[C@@H]1NC(=O)[C@H](CCCNC(=N)N)NC(=O)[C@H](CCCNC(=N)N)NC(=O)[C@H]([C@@H](C)O)NC(=O)[C@H](CO)NC(=O)[C@H](C(c2ccccc2)c2ccccc2)NC(=O)[C@H](CC(=O)O)NC(=O)[C@H](Cc2ccccc2)NC(=O)[C@H](CCC(N)=O)NC(=O)[C@@H](N)CSSC[C@@H](C(=O)O)NC(=O)[C@H](CCCCN)NC1=O [CQFDA(Ph)2STRRLKC] |  |

| SMILES | ka (memAb anti-HER2; [1]) | Kd (memAb anti-HER2; SPR, 25°C) [nM] | kd (memAb anti-HER2; SPR, 25°C) [s⁻¹] | other results |
| --- | --- | --- | --- | --- |
| CC(C)C[C@@H]1NC(=O)[C@H](CCCNC(=N)N)NC(=O)[C@H](CCCNC(=N)N)NC(=O)[C@H]([C@@H](C)O)NC(=O)[C@H](CO)NC(=O)[C@H](CC(C)C)NC(=O)[C@H](CC(=O)O)NC(=O)[C@H](Cc2ccc(O)cc2)NC(=O)[C@H](CCC(N)=O)NC(=O)[C@@H](N)CSSC[C@@H](C(=O)O)NC(=O)[C@H](CCCCN)NC1=O | 2.8 M-1s-1 x 104 | 3900 | 0.11 |  |
| CC(C)C[C@@H]1NC(=O)[C@H](C)NC(=O)[C@H](CCCNC(=N)N)NC(=O)[C@H](CO)NC(=O)[C@H](CO)NC(=O)[C@H](CC(C)C)NC(=O)[C@H](CC(N)=O)NC(=O)[C@H](Cc2ccc(O)cc2)NC(=O)[C@H](CCC(N)=O)NC(=O)[C@@H](N)CSSC[C@@H](C(=O)O)NC(=O)[C@H](CCCCN)NC1=O | 0.97 M-1s-1 x 104 | 3400 | 0.033 |  |
| CC(C)C[C@@H]1NC(=O)[C@H](CCCNC(=N)N)NC(=O)[C@H](CCCNC(=N)N)NC(=O)[C@H]([C@@H](C)O)NC(=O)[C@H](CO)NC(=O)[C@H](CC(C)C)NC(=O)[C@H](CC(=O)O)NC(=O)[C@H](Cc2ccc(Br)cc2)NC(=O)[C@H](CCC(N)=O)NC(=O)[C@@H](N)CSSC[C@@H](C(=O)O)NC(=O)[C@H](CCCCN)NC1=O | 0.91 M-1s-1 x 104 | 4700 | 0.042 |  |
